Assay results taken from patent publication US20020137929A1, “1 - (3-heterocyclylphenyl) isothiourea, -isourea, -guanidine and -amidine herbicidal agents” (Intellectual Property Department, BASF Aktiengesellschaft, priority 1998, published 2002).

Assays:
CASOB (Sicklepod) = experiment: Postemergence herbicidal evaluation; assay type: in vivo, Cassia obtusifolia
Method in brief: (§1)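 Each compound, dispersed in an acetone/water mix (50/50) carrying 0.5% TWEEN 20, is nozzle-sprayed at 40 psi on approximately two-week-old seedlings at about 0.0156–0.500 kg/ha. Plants are assessed 4–5 weeks afterward on a 0–9 scale relative to control; duplicate tests are averaged.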

[1] = test system: CHEAL (Lambsquarters, Common); experiment: Postemergence herbicidal evaluation; assay type: in vivo, Chenopodium album
Method in brief: as §1

GALAP (Galium) = experiment: Postemergence herbicidal evaluation; assay type: in vivo, Galium aparine
Method in brief: as §1

ORYSAT (Rice, Tebonnet) [2] = experiment: Postemergence herbicidal evaluation; assay type: in vivo, Oryza sativa, (L.) Tebonnet
Method in brief: as §1

ZEAMX (Corn, Field) = experiment: Postemergence herbicidal evaluation; assay type: in vivo, Zea mays
Method in brief: as §1

AMBEL (Ragweed, Common) = experiment: Preemergence herbicidal evaluation; assay type: in vivo, Ambrosia artemisifolia; settings: rated 4-5 weeks after treatment
Method in brief: (§2)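 Steps: mix seeds into potting soil; plant atop ~1 inch soil; spray compound in aqueous acetone (~0.0156-0.500 kg/ha equivalent); maintain in greenhouse with watering; rate visually 0-9 versus control at 4-5 weeks.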

SETVI (Foxtail, Green) = experiment: Preemergence herbicidal evaluation; assay type: in vivo, Setaria viridis; settings: rated 4-5 weeks after treatment
Method in brief: as §2

[3] = test system: GLXMAW (Soybean, Williams); experiment: Preemergence herbicidal evaluation; assay type: in vivo, Glycine max, (L.) Merr. cv Williams; settings: rated 4-5 weeks after treatment
Method in brief: as §2

ORYSAT (Rice, Tebonnet) [4] = experiment: Preemergence herbicidal evaluation; assay type: in vivo, Oryza sativa, (L.) Tebonnet; settings: rated 4-5 weeks after treatment
Method in brief: as §2

CYPSE (Flatsedge) [5] = experiment: Preemergence weed control under flooded paddy conditions; assay type: in vivo, Cyperus serotinus; settings: rated 3-4 weeks after treatment
Method in brief: (§3)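 Flooded-pot preemergence screen with silt loam and seeds in the upper 0.5 cm. Dose about 0.0313 to 0.500 kg/ha, delivered into flood water; visual 0-9 score after 3 to 4 weeks.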

MOOVA (Monochoria) = experiment: as above; assay type: in vivo, Monochoria vaginalis; settings: rated 3-4 weeks after treatment
Method in brief: as §3

CYPIR (Rice Flatsedge) = experiment: Postemergence weed control under flooded paddy conditions; assay type: in vivo, Cyperus iria; settings: postemergence weeds, 3-4 weeks after treatment
Method in brief: (§4)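 Flood-water application, about 0.0313–0.500 kg/ha a.i. in aqueous/acetone 50/50 v/v; water depth 1.5–3 cm throughout. Weeds 3–5 cm, rice 1.5–2.5 leaf. Greenhouse; 0–9 visual rating vs control at 3–4 wk.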

CYPSE (Flatsedge) [6] = experiment: as above; assay type: in vivo, Cyperus serotinus; settings: postemergence weeds, 3-4 weeks after treatment
Method in brief: as §4

[7] = test system: SAGPY (Arrowhead (Pygmaea)); experiment: as above; assay type: in vivo, Sagittaria pygmaea; settings: postemergence weeds, 3-4 weeks after treatment
Method in brief: as §4

CCOC(=O)CN1C(=O)C[S+]([O-])/C1=N/c1cc(-n2c(=O)cc(C(F)(F)F)n(C)c2=O)c(F)cc1Cl (centres unmarked) [Compound 45, 2-{{2-Chloro-5-[3,6-dihydro-3-methyl-2,6-dioxo-4-(trifluoromethyl)-1(2H)-pyrimidinyl]-4-fluoro-phenyl}imino}-4-oxo-3-thiazolidineacetic acid, ethyl ester, 1-oxide]
Postemergence herbicidal rating CASOB (CASOB (Sicklepod); Rate 0.0156 kg/ha): 0.0
Postemergence herbicidal rating CASOB (CASOB (Sicklepod); Rate 0.0313 kg/ha): 0.0
Postemergence herbicidal rating CASOB (CASOB (Sicklepod); Rate 0.0625 kg/ha): 0.0
Postemergence herbicidal rating CHEAL ([1]; Rate 0.0156 kg/ha): 0.0
Postemergence herbicidal rating CHEAL ([1]; Rate 0.0313 kg/ha): 5.0
Postemergence herbicidal rating CHEAL ([1]; Rate 0.0625 kg/ha): 9.0
Postemergence herbicidal rating GALAP (GALAP (Galium); Rate 0.0156 kg/ha): 0.0
Postemergence herbicidal rating GALAP (GALAP (Galium); Rate 0.0313 kg/ha): 0.0
Postemergence herbicidal rating GALAP (GALAP (Galium); Rate 0.0625 kg/ha): 0.0
Postemergence herbicidal rating ORYSAT (ORYSAT (Rice, Tebonnet) [2]; Rate 0.0156 kg/ha): 1.5
Postemergence herbicidal rating ORYSAT (ORYSAT (Rice, Tebonnet) [2]; Rate 0.0313 kg/ha): 1.5
Postemergence herbicidal rating ORYSAT (ORYSAT (Rice, Tebonnet) [2]; Rate 0.0625 kg/ha): 2.0
Postemergence herbicidal rating ZEAMX (ZEAMX (Corn, Field); Rate 0.0156 kg/ha): 4.5
Postemergence herbicidal rating ZEAMX (ZEAMX (Corn, Field); Rate 0.0313 kg/ha): 5.0
Postemergence herbicidal rating ZEAMX (ZEAMX (Corn, Field); Rate 0.0625 kg/ha): 5.5
Preemergence herbicidal rating AMBEL (AMBEL (Ragweed, Common); rate 0.0156 kg/ha): 0.0
Preemergence herbicidal rating AMBEL (AMBEL (Ragweed, Common); rate 0.0313 kg/ha): 0.0
Preemergence herbicidal rating AMBEL (AMBEL (Ragweed, Common); rate 0.0625 kg/ha): 0.0
Preemergence herbicidal rating AMBEL (AMBEL (Ragweed, Common); rate 0.1250 kg/ha): 0.0
Preemergence herbicidal rating AMBEL (AMBEL (Ragweed, Common); rate 0.2500 kg/ha): 2.0
Preemergence herbicidal rating SETVI (SETVI (Foxtail, Green); rate 0.0156 kg/ha): 0.0
Preemergence herbicidal rating SETVI (SETVI (Foxtail, Green); rate 0.0313 kg/ha): 0.0
Preemergence herbicidal rating SETVI (SETVI (Foxtail, Green); rate 0.0625 kg/ha): 0.0
Preemergence herbicidal rating SETVI (SETVI (Foxtail, Green); rate 0.1250 kg/ha): 0.0
Preemergence herbicidal rating SETVI (SETVI (Foxtail, Green); rate 0.2500 kg/ha): 0.0
Preemergence herbicidal rating GLXMAW ([3]; rate 0.0156 kg/ha): 0.0
Preemergence herbicidal rating GLXMAW ([3]; rate 0.0313 kg/ha): 0.0
Preemergence herbicidal rating GLXMAW ([3]; rate 0.0625 kg/ha): 0.0
Preemergence herbicidal rating GLXMAW ([3]; rate 0.1250 kg/ha): 0.0
Preemergence herbicidal rating GLXMAW ([3]; rate 0.2500 kg/ha): 3.0
Preemergence herbicidal rating ORYSAT (ORYSAT (Rice, Tebonnet) [4]; rate 0.0156 kg/ha): 0.0
Preemergence herbicidal rating ORYSAT (ORYSAT (Rice, Tebonnet) [4]; rate 0.0313 kg/ha): 0.0
Preemergence herbicidal rating ORYSAT (ORYSAT (Rice, Tebonnet) [4]; rate 0.0625 kg/ha): 0.0
Preemergence herbicidal rating ORYSAT (ORYSAT (Rice, Tebonnet) [4]; rate 0.1250 kg/ha): 0.0
Preemergence herbicidal rating ORYSAT (ORYSAT (Rice, Tebonnet) [4]; rate 0.2500 kg/ha): 0.0
Herbicidal rating CYPSE (CYPSE (Flatsedge) [5]; 0.0313 kg/ha): 0.0
Herbicidal rating CYPSE (CYPSE (Flatsedge) [5]; 0.0625 kg/ha): 0.0
Herbicidal rating CYPSE (CYPSE (Flatsedge) [5]; 0.2500 kg/ha): 0.0
Herbicidal rating MOOVA (MOOVA (Monochoria); 0.0313 kg/ha): 7.0
Herbicidal rating MOOVA (MOOVA (Monochoria); 0.0625 kg/ha): 7.0
Herbicidal rating MOOVA (MOOVA (Monochoria); 0.1250 kg/ha): 9.0
Herbicidal rating MOOVA (MOOVA (Monochoria); 0.2500 kg/ha): 9.0
Herbicidal rating CYPIR (CYPIR (Rice Flatsedge); rate 0.0313 kg/ha): 0.0
Herbicidal rating CYPIR (CYPIR (Rice Flatsedge); rate 0.0625 kg/ha): 3.0
Herbicidal rating CYPIR (CYPIR (Rice Flatsedge); rate 0.1250 kg/ha): 7.0
Herbicidal rating CYPIR (CYPIR (Rice Flatsedge); rate 0.2500 kg/ha): 7.0
Herbicidal rating CYPSE (CYPSE (Flatsedge) [6]; rate 0.0313 kg/ha): 0.0
Herbicidal rating CYPSE (CYPSE (Flatsedge) [6]; rate 0.0625 kg/ha): 0.0
Herbicidal rating CYPSE (CYPSE (Flatsedge) [6]; rate 0.2500 kg/ha): 0.0
Herbicidal rating SAGPY ([7]; rate 0.0313 kg/ha): 0.0
Herbicidal rating SAGPY ([7]; rate 0.0625 kg/ha): 0.0
Herbicidal rating SAGPY ([7]; rate 0.1250 kg/ha): 0.0
Herbicidal rating SAGPY ([7]; rate 0.2500 kg/ha): 4.0
